Test results taken from patent US11028079B2 (ConverGene LLC, priority 2015, dated 2021).

Molecular target: T1, BRD4 bromodomains (Homo sapiens, UniProt O60885)
T1 construct: fused on or other part: T7 phage capsid protein (phage-display fusion; the phage DNA is read out by qPCR)
Experiment: BROMOscan bromodomain competition binding assay (DiscoveRx)
Details: Kd from 11 compound concentrations ranging from 0 to 10 μM, read-out: BROMOscan Relative Activity
Protocol: Bromodomain assays were conducted to measure interactions between certain compounds and bromodomains.
The assays were conducted according to BROMOscan protocol from Discover Rx. Briefly, BRD4 bromodomains expressed as a fusion capsid protein of T7 phage were bound to acetylated peptide ligand on a solid phase and competition bindings were performed. T7 phage strains displaying bromodomains were grown in parallel in 24-well blocks in an E. coli host derived from the BL21 strain. E. coli were grown to log-phase and infected with T7 phage from a frozen stock (multiplicity of infection=0.4) and incubated with shaking at 32° C. until lysis (90-150 minutes). The lysates were centrifuged (5,000×g) and filtered (0.2 μm) to remove cell debris. […] The liganded beads were blocked with excess biotin and washed with blocking buffer (SeaBlock (Pierce), 1% BSA, 0.05% Tween 20, 1 mM DTT) to remove unbound ligand and to reduce non-specific phage binding. […] Test compounds were prepared as 1000× stocks in 100% DMSO and subsequently diluted 1:10 in monoethylene glycol (MEG) to create stocks at 100× the screening concentration (resulting stock solution is 10% DMSO/90% MEG). The compounds were then diluted directly into the assays such that the final concentration of DMSO and MEG were 0.1% and 0.9%, respectively. All reactions were performed in polystyrene 96-well plates in a final volume of 0.135 ml. […] The bromodomain concentration in the eluates was measured by qPCR. Data was collected at 11 compound concentrations ranging from 0 to 10 μM. Kd values were then derived from a standard dose-response curve generated with Hill equation (Hill Slope was set to ˜1) and a non-linear least square fit with the Levenberg-Marquardt algorithm. Response=Background+Signal−Background/1+(Kd Hill Slope/Dose Hill Slope)

Compound	Kd
Cc1noc(C)c1-c1ccc2nc(-c3cnn(CC(C)(C)O)c3)nc(N3CCNC[C@@H]3c3ccccc3)c2c1 [Example 291, (S)-1-(4-(6-(3,5-dimethylisoxazol-4-yl)-4-(2-phenylpiperazin-1-yl)quinazolin-2-yl)-1H-pyrazol-1-yl)-2-methylpropan-2-ol]	< 500 nM
Cc1noc(C)c1-c1ccc2nc(N3CCN(CCN(C)C)CC3)nc(NCc3cccs3)c2c1 [Example 71, 2-(4-(2-(dimethylamino)ethyl)piperazin-1-yl)-6-(3,5-dimethylisoxazol-4-yl)-N-(thiophen-2-ylmethyl)quinazolin-4-amine]	< 500 nM
Cc1noc(C)c1-c1ccc2nc(C(=O)NC3CS(=O)(=O)C3)nc(NCc3cccc(Cl)c3)c2c1 [Example 271, 4-((3-chlorobenzyl)amino)-6-(3,5-dimethylisoxazol-4-yl)-N-(1,1-dioxidothietan-3-yl)quinazoline-2-carboxamide]	< 500 nM
Cc1noc(C)c1-c1ccc2nc(C(=O)NCc3ccncc3Cl)nc(NCc3cccc(Cl)c3)c2c1 [Example 208, 4-((3-chlorobenzyl)amino)-N-((3-chloropyridin-4-yl)methyl)-6-(3,5-dimethylisoxazol-4-yl)quinazoline-2-carboxamide]	< 500 nM
Cc1ccncc1CNc1nc(N2CCN(CCN(C)C)CC2)nc2ccc(-c3c(C)noc3C)cc12 [Example 84, 2-(4-(2-(dimethylamino)ethyl)piperazin-1-yl)-6-(3,5-dimethylisoxazol-4-yl)-N-((4-methylpyridin-3-yl)methyl)quinazolin-4-amine]	< 500 nM
Cc1noc(C)c1-c1ccc2nc(C(=O)NCc3ccnc(Cl)c3)nc(NCc3cncc(Cl)c3)c2c1 [Example 206, 4-(((5-chloropyridin-3-yl)methyl)amino)-N-((2-chloropyridin-4-yl)methyl)-6-(3,5-dimethylisoxazol-4-yl)quinazoline-2-carboxamide]	< 500 nM
Cc1noc(C)c1-c1ccc2nc(C(=O)NCC3CN(C)C3)nc(NCc3cncc(Cl)c3)c2c1 [Example 233, 4-(((5-chloropyridin-3-yl)methyl)amino)-6-(3,5-dimethylisoxazol-4-yl)-N-((1-methylazetidin-3-yl)methyl)quinazoline-2-carboxamide]	< 500 nM
Cc1cc(NC(=O)c2nc(NCc3cccc(Cl)c3)c3cc(-c4c(C)noc4C)ccc3n2)ccn1 [Example 218, 4-((3-chlorobenzyl)amino)-6-(3,5-dimethylisoxazol-4-yl)-N-(2-methylpyridin-4-yl)quinazoline-2-carboxamide]	500 to 5000 nM
Cc1noc(C)c1-c1ccc2nc(-c3ccc(CO)nc3)nc(N3CCOC[C@@H]3c3ccccc3)c2c1 [Example 321, (S)-(5-(6-(3,5-dimethylisoxazol-4-yl)-4-(3-phenylmorpholino)quinazolin-2-yl)pyridin-2-yl)methanol]	< 500 nM
Cc1noc(C)c1-c1ccc2nc(C(=O)NC3CCN(S(C)(=O)=O)CC3)nc(NCc3cccc(Cl)c3)c2c1 [Example 201, 4-((3-chlorobenzyl)amino)-6-(3,5-dimethylisoxazol-4-yl)-N-(1-(methylsulfonyl)piperidin-4-yl)quinazoline-2-carboxamide]	< 500 nM
Cc1noc(C)c1-c1ccc2nc(Cl)nc(NCc3cncc(Cl)c3)c2c1 [Example 112, 2-chloro-N-((5-chloropyridin-3-yl)methyl)-6-(3,5-dimethylisoxazol-4-yl)quinazolin-4-amine]	500 to 5000 nM
Cn1cc(-c2ccc3nc(-c4cnn(C(C)(C)CO)c4)nc(NCc4cncc(Cl)c4)c3c2)ccc1=O [Example 149, 5-(4-(((5-chloropyridin-3-yl)methyl)amino)-2-(1-(1-hydroxy-2-methylpropan-2-yl)-1H-pyrazol-4-yl)quinazolin-6-yl)-1-methylpyridin-2(1H)-one]	< 500 nM
Cc1noc(C)c1-c1ccc2nc(N3CCN(C(=O)c4cnn(C)c4)CC3)nc(NCc3cccc(Cl)c3)c2c1 [Example 18, (4-(4-((3-chlorobenzyl)amino)-6-(3,5-dimethylisoxazol-4-yl)quinazolin-2-yl)piperazin-1-yl)(1-methyl-1H-pyrazol-4-yl)methanone]	< 500 nM
Cc1noc(C)c1-c1ccc2nc(N3CCC(CCN(C)C)CC3)nc(NCc3cccc(Cl)c3)c2c1 [Example 34, N-(3-chlorobenzyl)-2-(4-(2-(dimethylamino)ethyl)piperidin-1-yl)-6-(3,5-dimethylisoxazol-4-yl)quinazolin-4-amine]	< 500 nM
CNC(=O)CN1CCN(c2nc(NCc3cncc(Cl)c3)c3cc(-c4c(C)noc4C)ccc3n2)CC1 [Example 118, 2-(4-(4-(((5-chloropyridin-3-yl)methyl)amino)-6-(3,5-dimethylisoxazol-4-yl)quinazolin-2-yl)piperazin-1-yl)-N-methylacetamide]	< 500 nM
Cc1noc(C)c1-c1ccc2nc(NCCN3CCOCC3)nc(NCc3cccc(Cl)c3)c2c1 [Example 10, N4-(3-chlorobenzyl)-6-(3,5-dimethylisoxazol-4-yl)-N2-(2-morpholinoethyl)quinazoline-2,4-diamine]	< 500 nM
CN(C)CCN1CCN(c2nc(NCc3cccc(Cl)c3)c3cc(Br)ccc3n2)CC1 [Example 19, 6-bromo-N-(3-chlorobenzyl)-2-(4-(2-(dimethylamino)ethyl)piperazin-1-yl)quinazolin-4-amine]	> 5000 nM
Cc1noc(C)c1-c1ccc2nc(-c3cnn(CS(C)(=O)=O)c3)nc(N3CCOC[C@@H]3c3ccccc3)c2c1 [Example 302, (S)-4-(6-(3,5-dimethylisoxazol-4-yl)-2-(1-((methylsulfonyl)methyl)-1H-pyrazol-4-yl)quinazolin-4-yl)-3-phenylmorpholine]	< 500 nM
Cc1noc(C)c1-c1ccc2nc(N3CCN(CC(C)O)CC3)nc(NCc3cccc(Cl)c3)c2c1 (stereo not drawn) [Example 45, 1-(4-(4-((3-chlorobenzyl)amino)-6-(3,5-dimethylisoxazol-4-yl)quinazolin-2-yl)piperazin-1-yl)propan-2-ol]	< 500 nM
Cc1noc(C)c1-c1ccc2nc(C(=O)NC3CN(C)C3)nc(NC3(c4cccc(Cl)c4)CC3)c2c1 [Example 242, 4-((1-(3-chlorophenyl)cyclopropyl)amino)-6-(3,5-dimethylisoxazol-4-yl)-N-(1-methylazetidin-3-yl)quinazoline-2-carboxamide]	< 500 nM
Cc1noc(C)c1-c1ccc2nc(-c3cnn(CC(=O)N(C)C)c3)nc(NCc3cncc(Cl)c3)c2c1 [Example 140, 2-(4-(4-(((5-chloropyridin-3-yl)methyl)amino)-6-(3,5-dimethylisoxazol-4-yl)quinazolin-2-yl)-1H-pyrazol-1-yl)-N,N-dimethylacetamide]	< 500 nM
Cc1noc(C)c1-c1ccc2nc(N3CCN(C(=O)N(C)C)CC3)nc(NCc3cccc(Cl)c3)c2c1 [Example 244, 4-(4-((3-chlorobenzyl)amino)-6-(3,5-dimethylisoxazol-4-yl)quinazolin-2-yl)-N,N-dimethylpiperazine-1-carboxamide]	< 500 nM
Cc1noc(C)c1-c1ccc2nc(C(=O)O)nc(NCc3cccc(Cl)c3)c2c1 [Example 163, 4-((3-chlorobenzyl)amino)-6-(3,5-dimethylisoxazol-4-yl)quinazoline-2-carboxylic acid]	< 500 nM
Cc1noc(C)c1-c1ccc2nc(-c3cnn(CC#N)c3)nc(NCc3cccc(Cl)c3)c2c1 [Example 59, 2-(4-(4-((3-chlorobenzyl)amino)-6-(3,5-dimethylisoxazol-4-yl)quinazolin-2-yl)-1H-pyrazol-1-yl)acetonitrile]	< 500 nM
